The test system of one assay is K-562 cells. Description: Cell growth inhibition assay (CellTiter-Glo), K-562. The following applies: for GI50: Homo sapiens, K562. Format: cell-based, human. On the procedure:
(§1) Cell Growth Inhibition Assay
(§2) The human leukemia cell lines MV-4-11, THP-1 and K-562 were employed to characterize the effect of BET inhibitors on cellular proliferation and viability. Cells were obtained from the American Type Culture Collection (ATCC) and cultured at 37° C. in a humidified 5% CO2 incubator in the following media: MV-4-11: DMEM high glucose (Animed #1-26F01-I), 10% FCS (Animed #2-01F26-I), 4 mM L-Glutamine (Animed #5-10K50), 1 mM Sodium Pyruvate (Animed # G03625P), 1× Penicillin-Streptomycin (Animed # F12478P); K-562: Iscove's MEM (Animed #1-28F16-I), 10% FCS (Animed #2-01F26-I), 4 mM L-Glutamine (Animed #5-10K50), 1× Penicillin-Streptomycin (Animed # F12478P); THP-1: RPMI-1640 (Animed #1-41F01-I), 10% FCS (Animed #2-01F26-I), 2 mM L-Glutamine (Animed #5-10K50), 10 mM HEPES (Animed #5-31F100), 1 mM Sodium Pyruvate (Animed # G03625P), 1× Penicillin-Streptomycin (Animed # F12478P). The AML lines MV-4-11 and THP-1 are very sensitive to BET inhibitors and show massive cell death upon BET inhibition (Zuber et al., Nature, 478 (2011), 524-8). Compound-mediated suppression of cell proliferation/viability was assessed by quantification of cellular ATP levels using the CellTiter-Glo (CTG) reagent (Promega). Briefly, cells were seeded in 20 μl fresh medium into 384-well plates, followed by addition of 5 μL medium containing compound dilutions at 5-fold their final intended concentration. Dose-response effects were assessed by 3-fold serial dilutions of the test compound, starting at 10 μM. Following incubation of the cells for 4 days at 37° C. and 5% CO2, the effect of inhibitors on cell viability was quantified following addition of 20 μl CTG and luminescence quantification (integration time: 100 ms) as per vendor manual, using a correspondingly equipped Tecan M200 multi-mode platereader (TECAN, Switzerland). For data analysis, the assay background value determined in wells containing medium, but no cells, was subtracted from all data points. To enable differentiation of cytotoxic from cytostatic compounds, the number of viable cells is assessed relative to that observed at the time of compound addition using a separate cell plate (day 0). The effect of a particular test compound concentration on cell proliferation/viability is expressed as percentage of the background- and day 0-corrected luminescence reading obtained for cells treated with vehicle only (DMSO, 0.1% final concentration), which is set as 100%, whereas that luminescence reading for wells containing medium is set as −100%. Compound concentrations leading to half-maximal (1050) and total growth inhibition (TGI) were determined using standard four parameter curve fitting.
A general note: Cellular ATP, detected with luciferase, serves as a proxy for viable cell number.

Another assay relates to THP-1 cells. Description: Cell growth inhibition assay (CellTiter-Glo), THP-1. The assay is classed as cell-based. The following applies: Homo sapiens. On the procedure:
as §1, §2

In the next assay the test system is MV-4-11 cells. Description: Cell growth inhibition assay (CellTiter-Glo), MV-4-11. The note with it: Homo sapiens, MV4-11. The assay is classed as cell-based. As for the experimental part: as §1, §2

Broadly, the GI50 is the concentration giving 50% growth inhibition.

For `Cc1nn(-c2ccnn2C)c2c1[C@H](c1ccc(Cl)cc1)N(c1cc(C)c3nnc(C)n3c1)C2=O` [Example 124, (S)-4-(4-chlorophenyl)-5-(3,8-dimethyl-[1,2,4]triazolo[4,3-a]pyridin-6-yl)-3-methyl-1-(1-methyl-1H-pyrazol-5-yl)-4,5-dihydropyrrolo[3,4-c]pyrazol-6(1H)-one], the GI50 in the assay on K-562 cells came to 2.52 µM; in the assay on THP-1 cells, 0.695 µM; in the assay with MV-4-11 cells, 0.296 µM.
Take `CCc1nn(C2CC2)c2c1C(c1ccc(Cl)cc1)N(c1cc(C)c(=O)n(C)c1)C2=O` (stereo not shown) [Example 69, 4-(4-chlorophenyl)-1-cyclopropyl-5-(1,5-dimethyl-6-oxo-1,6-dihydropyridin-3-yl)-3-ethyl-4,5-dihydropyrrolo-[3,4-c]pyrazol-6(1H)-one]: the GI50 in the assay with K-562 cells was 0.135 µM; in the assay on THP-1 cells, 0.0442 µM; in the assay on MV-4-11 cells it was 0.0274 µM.
With `Cc1nn(C(=O)N(C)C)c2c1C(c1ccc(Cl)cc1)N(c1cc(C)c(=O)n(C)c1)C2=O` (stereo not shown) [Example 142], the figures for the GI50 with K-562 cells, with THP-1 cells and in the assay on MV-4-11 cells were 0.712 µM, 0.239 µM and 0.0793 µM, respectively.
`COc1ncc(-n2nc(C)c3c2C(=O)N(c2cc(C)c(=O)n(C)c2)[C@H]3c2ccc(Cl)cc2)c(OC)n1` [Example 99, (S)-4-(4-chlorophenyl)-1-(2,4-dimethoxypyrimidin-5-yl)-5-(1,5-dimethyl-6-oxo-1,6-dihydropyridin-3-yl)-3-methyl-4,5-dihydropyrrolo-[3,4-c]pyrazol-6(1H)-one] gave an IC (TGI) in the assay on K-562 cells of over 10 µM. In addition, the GI50 in the assay on K-562 cells was over 10 µM; in the assay with THP-1 cells, 2.84 µM; in the assay on MV-4-11 cells it was 2 µM.
In the case of `Cc1nn(-c2ccnn2C)c2c1[C@H](c1ccc(Cl)cc1)N(c1cc(C)c(=O)n(C)c1)C2=O` [Example 121, (S)-4-(4-chlorophenyl)-5-(1,5-dimethyl-6-oxo-1,6-dihydropyridin-3-yl)-3-methyl-1-(1-methyl-1H-pyrazol-5-yl)-4,5-dihydropyrrolo-[3,4-c]pyrazol-6(1H)-one], the GI50 is 9.71 µM with K-562 cells, 2.11 µM in the assay with THP-1 cells and 0.83 µM in the assay on MV-4-11 cells.
With `COc1ccccc1-n1nc(C)c2c1C(=O)N(c1cc(C)c3nnc(C)n3c1)C2c1ccc(Cl)cc1F` (stereo not shown) [Example 187, 4-(4-chloro-2-fluorophenyl)-5-(3,8-dimethyl-[1,2,4]triazolo[4,3-a]pyridin-6-yl)-1-(2-methoxyphenyl)-3-methyl-4,5-dihydropyrrolo-[3,4-c]pyrazol-6(1H)-one], the GI50 with K-562 cells worked out at 0.655 µM; in the assay on THP-1 cells, 0.168 µM; in the assay on MV-4-11 cells it was 0.144 µM.
Regarding `Cc1nn(C2CC2)c2c1[C@@H](c1ccc(Cl)cc1)N(c1cc(C)c3nnc(C)n3n1)C2=O` [Example 122, (R)-4-(4-chlorophenyl)-1-cyclopropyl-5-(3,8-dimethyl-[1,2,4]triazolo[4,3-b]-pyridazin-6-yl)-3-methyl-4,5-dihydropyrrolo[3,4-c]pyrazol-6(1H)-one], the concentration for 50% growth inhibition (GI50) in the assay with K-562 cells came out at 0.0241 µM; in the assay with THP-1 cells, 0.00432 µM; in the assay with MV-4-11 cells it was 0.00341 µM.
As to `CCc1nn(CCOC)c2c1C(c1ccc(Cl)cc1)N(c1cc(C)c(=O)n(C)c1)C2=O` (stereo not shown) [Example 86, 4-(4-chlorophenyl)-5-(1,5-dimethyl-6-oxo-1,6-dihydropyridin-3-yl)-3-ethyl-1-(2-methoxyethyl)-4,5-dihydropyrrolo[3,4-c]pyrazol-6(1H)-one], the results for the GI50 in the assay on K-562 cells, with THP-1 cells and with MV-4-11 cells were 0.229 µM, 0.0638 µM and 0.0346 µM, respectively.
For `Cc1nn(C2CC2)c2c1[C@@H](c1ccc(Cl)cc1)N(c1cc(Cl)c(=O)n(C)c1)C2=O` [Example 51, (R)-5-(5-chloro-1-methyl-6-oxo-1,6-dihydropyridin-3-yl)-4-(4-chlorophenyl)-1-cyclopropyl-3-methyl-4,5-dihydropyrrolo-[3,4-c]pyrazol-6(1H)-one] the same measures were 0.318 µM, 0.0725 µM and 0.0519 µM.
For `COc1ncccc1-n1nc(C)c2c1C(=O)N(c1cc(C)c3nnc(C)n3n1)C2c1ccc(Cl)cc1` (stereo not shown) [Example 111, 4-(4-chlorophenyl)-5-(3,8-dimethyl-[1,2,4]triazolo[4,3-b]pyridazin-6-yl)-1-(2-methoxypyridin-3-yl)-3-methyl-4,5-dihydropyrrolo-[3,4-c]pyrazol-6(1H)-one] the same measures were 0.177 µM, 0.022 µM and 0.0162 µM.
Take `COc1ncccc1-n1nc(C)c2c1C(=O)N(c1cc(Cl)c(=O)n(C)c1)C2c1ccc(Cl)cc1` (stereo not shown) [Example 72, 5-(5-chloro-1-methyl-6-oxo-1,6-dihydropyridin-3-yl)-4-(4-chlorophenyl)-1-(2-methoxypyridin-3-yl)-3-methyl-4,5-dihydropyrrolo[3,4-c]pyrazol-6(1H)-one]: the GI50 in the assay on K-562 cells came out at 0.766 µM; in the assay on THP-1 cells, 0.223 µM; in the assay with MV-4-11 cells it was 0.1 µM.
For `CNC(=O)n1nc2c(c1C)C(c1ccc(Cl)cc1)N(c1cc(C)c3nnc(C)n3c1)C2=O` (stereo not shown) [Example 146, 4-(4-chlorophenyl)-5-(3,8-dimethyl-[1,2,4]triazolo[4,3-a]pyridin-6-yl)-N,3-dimethyl-6-oxo-5,6-dihydropyrrolo[3,4-c]pyrazole-2(4H)-carboxamide] the same measures were 0.314 µM, 0.15 µM and 0.0392 µM.
`Cc1cc(N2C(=O)c3nn(C)c(O)c3C2c2ccc(Cl)cc2)cn(C)c1=O` (stereo not shown) [Example 73, 4-(4-chlorophenyl)-5-(1,5-dimethyl-6-oxo-1,6-dihydropyridin-3-yl)-3-hydroxy-2-methyl-4,5-dihydropyrrolo[3,4-c]pyrazol-6(2H)-one]: the values for the GI50 in the assay on K-562 cells, with THP-1 cells and in the assay with MV-4-11 cells were over 10 µM, over 10 µM and 3.02 µM, respectively.
On to `Cc1cc(N2C(=O)c3nn(C(C)C)c(C)c3C2c2ccc(Cl)cc2F)cn2c(C)nnc12` (stereo not shown) [Example 169, 4-(4-chloro-2-fluorophenyl)-5-(3,8-dimethyl-[1,2,4]triazolo[4,3-a]pyridin-6-yl)-2-isopropyl-3-methyl-4,5-dihydropyrrolo[3,4-c]pyrazol-6(2H)-one], for which the 50% growth inhibitory concentration (GI50) with K-562 cells stood at 0.276 µM; with THP-1 cells, 0.0505 µM; with MV-4-11 cells, 0.0311 µM.
With `Cc1nn(C2CNC2)c2c1C(c1ccc(Cl)cc1)N(c1cc(C)c3nnc(C)n3c1)C2=O` (stereo not shown) [Example 151, 1-(azetidin-3-yl)-4-(4-chlorophenyl)-5-(3,8-dimethyl-[1,2,4]triazolo[4,3-a]pyridin-6-yl)-3-methyl-4,5-dihydropyrrolo[3,4-c]pyrazol-6(1H)-one], the figures for the GI50 in the assay on K-562 cells, in the assay on THP-1 cells and in the assay with MV-4-11 cells were 2.61 µM, 0.778 µM and 0.226 µM, respectively.
As to `Cc1nn(C2CC2)c2c1C(c1ccc(Cl)cc1F)N(c1cc(C)c3nnc(C)n3c1)C2=O` (stereo not shown) [Example 178, 4-(4-chloro-2-fluorophenyl)-1-cyclopropyl-5-(3,8-dimethyl-[1,2,4]triazolo[4,3-a]pyridin-6-yl)-3-methyl-4,5-dihydropyrrolo[3,4-c]pyrazol-6(1H)-one], the figures for the GI50 in the assay on K-562 cells, in the assay with THP-1 cells and in the assay with MV-4-11 cells were 0.137 µM, 0.0425 µM and 0.0282 µM, respectively.
As to `Cc1nn(C(C)C)c2c1[C@@H](c1ccc(Cl)cc1F)N(c1cc(C)c3nnc(C)n3c1)C2=O` [Example 189, (S)-4-(4-chloro-2-fluorophenyl)-5-(3,8-dimethyl-[1,2,4]triazolo[4,3-a]pyridin-6-yl)-1-isopropyl-3-methyl-4,5-dihydropyrrolo[3,4-c]pyrazol-6(1H)-one], the GI50 worked out at 0.0886 µM in the assay on K-562 cells, 0.0113 µM with THP-1 cells and 0.0141 µM in the assay with MV-4-11 cells.
